The values that follow come from ChEMBL document CHEMBL1139598, “A discriminant model constructed by the support vector machine method for HERG potassium channel inhibitors” (Bioorg Med Chem Lett, 2005).

The structures appear in SMILES notation. pIC50: −log10 of the molar value.

The target in this experiment is Voltage-gated inwardly rectifying potassium channel KCNH2 (Homo sapiens, UniProt Q12809). As to the kind of experiment: Inhibitory concentration against potassium channel HERG.
Chain of Voltage-gated inwardly rectifying potassium channel KCNH2 (Q12809 whole entry): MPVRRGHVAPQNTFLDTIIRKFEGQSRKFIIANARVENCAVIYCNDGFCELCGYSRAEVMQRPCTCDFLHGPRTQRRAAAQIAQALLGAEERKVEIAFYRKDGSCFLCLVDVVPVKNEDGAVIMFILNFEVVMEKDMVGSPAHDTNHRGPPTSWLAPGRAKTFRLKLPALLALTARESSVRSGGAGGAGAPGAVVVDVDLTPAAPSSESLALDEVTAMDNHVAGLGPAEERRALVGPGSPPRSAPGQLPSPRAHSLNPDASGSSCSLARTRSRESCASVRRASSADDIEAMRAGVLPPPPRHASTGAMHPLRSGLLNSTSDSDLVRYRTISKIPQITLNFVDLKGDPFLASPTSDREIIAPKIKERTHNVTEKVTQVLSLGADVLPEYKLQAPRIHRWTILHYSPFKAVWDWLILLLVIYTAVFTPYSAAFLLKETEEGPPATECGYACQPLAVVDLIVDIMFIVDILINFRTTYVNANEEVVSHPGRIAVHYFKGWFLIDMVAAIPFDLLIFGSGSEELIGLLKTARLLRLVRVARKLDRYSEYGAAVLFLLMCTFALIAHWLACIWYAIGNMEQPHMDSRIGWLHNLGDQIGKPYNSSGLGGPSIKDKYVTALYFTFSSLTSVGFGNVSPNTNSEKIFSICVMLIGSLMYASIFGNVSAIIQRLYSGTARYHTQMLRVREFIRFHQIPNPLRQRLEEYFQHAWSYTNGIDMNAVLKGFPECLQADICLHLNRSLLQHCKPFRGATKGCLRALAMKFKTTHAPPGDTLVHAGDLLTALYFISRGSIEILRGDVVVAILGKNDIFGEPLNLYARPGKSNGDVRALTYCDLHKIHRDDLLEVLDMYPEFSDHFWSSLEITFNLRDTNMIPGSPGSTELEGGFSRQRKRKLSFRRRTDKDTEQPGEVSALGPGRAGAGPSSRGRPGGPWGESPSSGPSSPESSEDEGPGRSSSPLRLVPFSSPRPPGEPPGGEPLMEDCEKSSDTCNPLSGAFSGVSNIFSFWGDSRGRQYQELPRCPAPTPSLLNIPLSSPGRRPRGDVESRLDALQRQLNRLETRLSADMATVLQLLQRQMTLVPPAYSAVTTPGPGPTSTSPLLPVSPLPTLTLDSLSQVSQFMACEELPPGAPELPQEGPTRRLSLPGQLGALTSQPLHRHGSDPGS
`COc1ccc2c3c1O[C@H]1[C@@H](O)C=C[C@H]4[C@@H](C2)N(C)CC[C@@]341` [CODEINE]: the pIC50 was 3.52.

With `CC[C@H](OC(C)=O)C(C[C@H](C)N(C)C)(c1ccccc1)c1ccccc1` [LEVOMETHADYL ACETATE], the negative logarithm of the IC50 (pIC50) is 5.66.

`CCC(=O)C(CC(C)N(C)C)(c1ccccc1)c1ccccc1` (centres undefined) [METHADONE] had a pIC50 of 5.01.

Compound `COc1cc2nc(N3CCN(C(=O)c4ccco4)CC3)nc(N)c2cc1OC` [PRAZOSIN] gave a pIC50 of 5.80.
